Reference: ChEMBL document CHEMBL1955803, “Preclinical in vivo evaluation of efficacy, pharmacokinetics, and pharmacodynamics of a novel MEK1/2 kinase inhibitor RO5068760 in multiple tumor models” (Mol Cancer Ther, 2010)
Active and inactive are the calls of the source. The rule behind the calls is not given here.

What was measured:
[1] = biological target: T1, Dual specificity mitogen-activated protein kinase kinase 1 (Homo sapiens, UniProt Q02750); experiment: Inhibition of MEK1
[2] = biological target: T1, Dual specificity mitogen-activated protein kinase kinase 1; experiment: Inhibition of MEK1 in human LOX cells assessed as inhibition of ERK phosphorylation by Western blot analysis; assay type: cell-based
[3] = biological target: T1, Dual specificity mitogen-activated protein kinase kinase 1; experiment: Inhibition of MEK1 in human H460 cells assessed as inhibition of ERK phosphorylation by Western blot analysis; assay type: cell-based
[4] = Growth inhibition of human LOX cells expressing B-Raf V600E mutant by MTT assay; assay type: functional, cell-based
[5] = tested on: NCI-H460; experiment: Growth inhibition of human […] mutant by MTT assay; assay type: functional, cell-based
[6] = Cell cycle arrest in human LOX cells assessed as accumulation at G1 phase; assay type: functional, cell-based
[7] = Antitumor activity against human LOX cells expressing B-Raf V600E mutant xenografted in nude mouse assessed as tumor growth inhibition at 50 mg/kg, po bid; assay type: functional; conditions: read-out: GI
[8] = tested on: HT-29; experiment: Antitumor activity against human HT-29 cells expressing B-Raf V600E mutant xenografted in nude mouse assessed as tumor growth inhibition at 100 mg/kg, po bid; assay type: functional; conditions: read-out: GI
[9] = tested on: MIA PaCa-2; experiment: Antitumor activity against human MIAPaCa2 cells expressing K-Ras G12C mutant xenografted in nude mouse assessed as tumor growth inhibition at 50 mg/kg, po bid; assay type: functional; conditions: read-out: GI
[10] = tested on: MIA PaCa-2; experiment: Antitumor activity against human MIAPaCa2 cells expressing K-Ras G12C mutant xenografted in nude mouse assessed as tumor growth inhibition at 200 mg/kg, po bid; assay type: functional; conditions: read-out: GI
[11] = tested on: Mus musculus; experiment: Toxicity in human H460 cells expressing K-Ras Q61H mutant xenografted nude mouse assessed as gross signs of adverse effect at 25 to 200 mg/kg, po bid for 3 weeks; assay type: organism-based; design: dose 25-200 mg/kg, route oral; conditions: in vivo, 504 h
[12] = tested on: Mus musculus; experiment: Inhibition of MEK-mediated ERK phosphorylation in tumor of human LOX cells expressing B-Raf V600E mutant xenografted nude mouse at 100 mg/kg, po after 2 hrs by Western blot analysis relative to control; assay type: functional
[13] = Plasma concentration in human LOX cells expressing B-Raf V600E mutant xenografted nude mouse at 100 mg/kg, po after 1 hr; assay type: ADME, organism-based; design: dose 100 mg/kg, route oral
[14] = Plasma concentration in human LOX cells expressing B-Raf V600E mutant xenografted nude mouse at 100 mg/kg, po after 4 hrs; assay type: ADME, organism-based; design: dose 100 mg/kg, route oral
[15] = Plasma concentration in human LOX cells expressing B-Raf V600E mutant xenografted nude mouse at 100 mg/kg, po after 12 hrs; assay type: ADME, organism-based; design: dose 100 mg/kg, route oral
[16] = Drug level in human LOX cells expressing B-Raf V600E mutant xenografted nude mouse tumor at 100 mg/kg, po after 2 hrs; assay type: ADME, organism-based, Neoplasm; design: dose 100 mg/kg, route oral; conditions: read-out: Drug uptake
[17] = Drug level in human LOX cells expressing B-Raf V600E mutant xenografted nude mouse tumor at 100 mg/kg, po after 8 hrs; assay type: ADME, organism-based, Neoplasm; design: dose 100 mg/kg, route oral; conditions: read-out: Drug uptake
[18] = Plasma concentration in human HT-29 cells expressing B-Raf V600E mutant xenografted nude mouse at 50 mg/kg, po after 4 hrs; assay type: ADME, organism-based; design: dose 50 mg/kg, route oral
[19] = Drug level in human HT-29 cells expressing B-Raf V600E mutant xenografted nude mouse tumor at 50 mg/kg, po after 12 hrs; assay type: ADME, organism-based, Neoplasm; design: dose 50 mg/kg, route oral; conditions: read-out: Drug uptake
[20] = tested on: Mus musculus; experiment: Inhibition of MEK-mediated ERK phosphorylation in tumor of human HT-29 cells expressing B-Raf V600E mutant xenografted nude mouse at 100 mg/kg, po after 8 hrs by Western blot analysis relative to control; assay type: functional; conditions: HT-29, 8 h
[21] = tested on: Mus musculus; experiment: Inhibition of MEK-mediated ERK phosphorylation in tumor of human HT-29 cells expressing B-Raf V600E mutant xenografted nude mouse at 100 mg/kg, po after 12 hrs by Western blot analysis relative to control; assay type: functional; conditions: HT-29, 12 h
[22] = Plasma concentration in human HT-29 cells expressing B-Raf V600E mutant xenografted nude mouse at 100 mg/kg, po after 2 hrs; assay type: ADME, organism-based; design: dose 100 mg/kg, route oral
[23] = Plasma concentration in human HT-29 cells expressing B-Raf V600E mutant xenografted nude mouse at 100 mg/kg, po after 4 hrs; assay type: ADME, organism-based; design: dose 100 mg/kg, route oral
[24] = Plasma concentration in human HT-29 cells expressing B-Raf V600E mutant xenografted nude mouse at 100 mg/kg, po after 8 hrs; assay type: ADME, organism-based; design: dose 100 mg/kg, route oral
[25] = tested on: Cynomolgus monkey; experiment: Inhibition of MEK in po dosed cynomolgus monkey peripheral blood mononuclear cells assessed as inhibition of PMA-stimulated ERK phosphorylation after 1 to 24 hrs by flow cytometry; assay type: functional, organism-based; conditions: Macaca fascicularis
[26] = AUC (0 to 12 hrs) in human LOX cells expressing B-Raf V600E mutant xenografted nude mouse at 12.5 mg/kg, po bid; assay type: ADME, organism-based; design: time < 12 hr, dose 12.5 mg/kg, route oral; conditions: in vivo
[27] = AUC (0 to 12 hrs) in human LOX cells expressing B-Raf V600E mutant xenografted nude mouse at 25 mg/kg, po bid; assay type: ADME, organism-based; design: time < 12 hr, dose 25 mg/kg, route oral; conditions: in vivo
[28] = AUC (0 to 12 hrs) in human HT-29 cells expressing B-Raf V600E mutant xenografted nude mouse at 25 mg/kg, po bid; assay type: ADME, organism-based; design: time < 12 hr, dose 25 mg/kg, route oral; conditions: in vivo
[29] = Cmax in human HT-29 cells expressing B-Raf V600E mutant xenografted nude mouse at 50 mg/kg, po bid; assay type: ADME, organism-based; design: dose 50 mg/kg, route oral; conditions: in vivo
[30] = AUC (0 to 12 hrs) in human HT-29 cells expressing B-Raf V600E mutant xenografted nude mouse at 50 mg/kg, po bid; assay type: ADME, organism-based; design: time < 12 hr, dose 50 mg/kg, route oral; conditions: in vivo
[31] = tested on: Mus musculus; experiment: Average drug concentration in human HT-29 cells expressing B-Raf V600E mutant xenografted nude mouse plasma at 50 mg/kg, po bid; assay type: ADME, organism-based; design: dose 50 mg/kg, route oral; conditions: in vivo
[32] = Cmax in human MIAPaCa2 cells expressing K-Ras G12C mutant xenografted nude mouse at 50 mg/kg, po bid; assay type: ADME, organism-based, MIA PaCa-2; design: dose 50 mg/kg, route oral; conditions: in vivo
[33] = Cmax in human MIAPaCa2 cells expressing K-Ras G12C mutant xenografted nude mouse at 100 mg/kg, po bid; assay type: ADME, organism-based, MIA PaCa-2; design: dose 100 mg/kg, route oral; conditions: in vivo
[34] = tested on: Mus musculus; experiment: Average drug concentration in human MIAPaCa2 cells expressing K-Ras G12C mutant xenografted nude mouse plasma at 200 mg/kg, po qd; assay type: ADME, organism-based, MIA PaCa-2; design: dose 200 mg/kg, route oral; conditions: in vivo
[35] = tested on: Mus musculus; experiment: Inhibition of MEK-mediated ERK phosphorylation in po dosed human HT-29 cells expressing B-Raf V600E mutant xenografted nude mouse plasma by Western blot analysis; assay type: functional, organism-based; conditions: HT-29, Plasma
[36] = tested on: MIA PaCa-2; experiment: Antitumor activity against human MIAPaCa2 cells expressing K-Ras G12C mutant xenografted in nude mouse assessed as tumor growth inhibition at 500 mg/kg, po administered weekly once; assay type: functional; conditions: read-out: GI
[37] = biological target: T2, Dual specificity mitogen-activated protein kinase kinase; MEK1/2 (Homo sapiens) (UniProt P36507+Q02750); conditions: HT-29, 2 to 10 uM
Description: Inhibition of MEK1/2 phosphorylation in human HT-29 cells at 2 to 10 uM by Western blot analysis

[38] = biological target: T2, Dual specificity mitogen-activated protein kinase kinase; MEK1/2 (Homo sapiens); conditions: LOX, 2 to 10 uM
Description: Inhibition of MEK1/2 phosphorylation in human LOX cells at 2 to 10 uM by Western blot analysis

[39] = biological target: T2, Dual specificity mitogen-activated protein kinase kinase; MEK1/2 (Homo sapiens); conditions: LOX, 2 to 10 uM; remark: listed apart in the source
Description: Inhibition of MEK1/2 in human LOX cells assessed as upregulation of p27 expression at 2 to 10 uM by Western blot analysis

T2 sequence (P36507 whole entry, looked up): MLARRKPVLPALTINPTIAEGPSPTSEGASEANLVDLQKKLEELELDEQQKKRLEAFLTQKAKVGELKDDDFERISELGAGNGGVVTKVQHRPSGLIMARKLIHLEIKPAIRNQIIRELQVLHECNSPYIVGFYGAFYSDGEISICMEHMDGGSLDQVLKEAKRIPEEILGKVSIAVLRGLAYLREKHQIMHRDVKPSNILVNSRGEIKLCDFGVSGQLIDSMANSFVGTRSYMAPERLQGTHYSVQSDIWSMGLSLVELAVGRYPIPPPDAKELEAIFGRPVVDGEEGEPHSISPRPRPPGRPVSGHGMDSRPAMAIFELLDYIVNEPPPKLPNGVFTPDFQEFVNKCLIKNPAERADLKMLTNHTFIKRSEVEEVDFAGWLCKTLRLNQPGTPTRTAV
T2 sequence (Q02750 whole entry, looked up): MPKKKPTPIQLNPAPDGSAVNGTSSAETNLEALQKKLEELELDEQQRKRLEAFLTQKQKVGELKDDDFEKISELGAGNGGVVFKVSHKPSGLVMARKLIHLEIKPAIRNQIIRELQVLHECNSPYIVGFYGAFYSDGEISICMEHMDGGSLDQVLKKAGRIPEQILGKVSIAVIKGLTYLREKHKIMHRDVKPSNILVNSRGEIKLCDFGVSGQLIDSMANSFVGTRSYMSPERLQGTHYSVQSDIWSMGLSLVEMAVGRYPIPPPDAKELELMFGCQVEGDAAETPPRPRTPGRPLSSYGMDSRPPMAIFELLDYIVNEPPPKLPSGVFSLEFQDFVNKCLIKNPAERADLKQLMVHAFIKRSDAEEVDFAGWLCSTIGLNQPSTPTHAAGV
T1 sequence (Q02750 whole entry): as the sequence (Q02750 whole entry, looked up) above

IC50 [1]: 25 nM | IC50 [2]: 22 nM | IC50 [3]: 82 nM | IC50 [5]: 300 nM | IC90 [5]: 3080 nM | concentration at 1 h [13]: 4840 ng/mL | concentration at 4 h [14]: 4140 ng/mL | concentration at 12 h [15]: 72 ng/mL | concentration at 2 h [16]: 3040 ng/g | concentration at 8 h [17]: 1160 ng/g | concentration at 4 h [18]: 4030 ng/mL | concentration at 12 h [19]: 188 ng/g | concentration at 2 h [22]: 9360 ng/mL | concentration at 4 h [23]: 6030 ng/mL | concentration at 8 h [24]: 741 ng/mL | EC50 [25]: 1410 nM | AUC at 12 h [26]: 4660 ng·h/mL | AUC at 12 h [27]: 10000 ng·h/mL | AUC at 12 h [28]: 3780 ng·h/mL | Cmax [29]: 1300 ng/mL | AUC at 12 h [30]: 7310 ng·h/mL | Cave [31]: 609 ng/mL | Cmax [32]: 5240 ng/mL | Cmax [33]: 9650 ng/mL | Cave [34]: 2758 ng/mL | EC50 [35]: 3350 nM | inhibition [37]: Active | inhibition [38]: Active | inhibition [39]: Active
SMILES: C[C@@H](c1ccccc1)[C@@H](C(=O)Nc1ccc(I)cc1F)N1C(=O)N[C@H](c2ccc(OC[C@H](O)CO)cc2)C1=O
IC50 [4]: 18 nM | IC90 [4]: 720 nM | Activity [6]: Active | inhibition in vivo at 50 mg/kg [7]: > 100% | inhibition in vivo at 100 mg/kg [8]: 95% | inhibition in vivo at 50 mg/kg [9]: 84% | inhibition in vivo at 200 mg/kg [10]: 97% | Activity [11]: Non-toxic | inhibition in vivo at 100 mg/kg [12]: 86% | inhibition in vivo at 100 mg/kg [20]: 0% | inhibition in vivo at 100 mg/kg [21]: 0% | inhibition in vivo at 500 mg/kg [36]: 42%
